Results from patent publication US9580418B2, “Bicyclic aromatic carboxamide compounds useful as Pim kinase inhibitors” (Incyte Corporation, priority 2014, dated 2017).

Columns and labels:
[1] = molecular target: Pim-3 (Homo sapiens (Human), UniProt Q86V86); assay: Pim-3 kinase assay (Pim enzyme assays, Example A); format: biochemical; conditions: 1 mM ATP, BAD peptide substrate; read-out: PIM3 IC50
Protocol: (§1) Pim-1 and Pim-3 kinase assays-20 μL reactions were run in white 384 well polystyrene plates dotted with 0.8 μL compound/DMSO in the assay buffer (50 mM Tris, pH 7.5, 0.01% Tween-20, 5 mM mgCl2, 0.01% BSA, 5 mM DTT), containing 0.05 μM Biotin-labeled BAD peptide substrate (AnaSpec 62269), 1 mM ATP, and 2.5 pM (Pim-1, Invitrogen PV3503) or 1.25 pM (Pim-3, Millipore 14-738) enzyme for 1 h at 25° C. Reactions were stopped by addition of 10 μL STOP Buffer (150 mM Tris, pH=7.5, 150 mM NaCl, 75 mM EDTA, 0.01% Tween-20, 0.3% BSA,) supplemented with Phospho-Bad (Ser112) Antibody (Cell Signaling 9291) diluted 666-fold, and Streptavidin donor beads (PerkinElmer 6760002) along with Protein-A acceptor beads (PerkinElmer 6760137) at 15 μg/mL each. Supplementation of the STOP buffer with beads and stopping the reactions were done under reduced light. Prior to the stopping reactions STOP buffer with beads was preincubated for 1 h in the dark at room temperature. After stopping the reactions, plates were incubated for 1 h in the dark at room temperature before reading on a PHERAstar FS plate reader (BMG Labtech) under reduced light.

[2] = molecular target: Pim-2 (Homo sapiens (Human), UniProt Q9P1W9); assay: Pim-2 kinase assay (Pim enzyme assays, Example A); format: biochemical; conditions: 1 mM ATP, CREBtide peptide substrate; read-out: PIM2 IC50
Chain of Pim-2 (Q9P1W9 whole entry): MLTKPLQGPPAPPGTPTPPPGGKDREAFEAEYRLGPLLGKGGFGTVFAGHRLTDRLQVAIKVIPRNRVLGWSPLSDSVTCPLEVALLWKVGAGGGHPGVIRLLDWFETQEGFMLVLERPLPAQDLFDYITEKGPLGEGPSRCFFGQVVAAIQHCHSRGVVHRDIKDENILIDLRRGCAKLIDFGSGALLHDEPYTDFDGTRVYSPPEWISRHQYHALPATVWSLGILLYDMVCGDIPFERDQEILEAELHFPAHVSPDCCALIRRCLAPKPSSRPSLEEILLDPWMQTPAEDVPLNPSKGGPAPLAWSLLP
Protocol: Pim-2 kinase assay-20 μL reactions were run in white 384 well polystyrene plates dotted with 0.8 μL compound/DMSO in the assay buffer (50 mM Tris, pH 7.5, 0.01% Tween-20, 5 mM mgCl2, 0.01% BSA, 5 mM DTT), containing 0.05 μM Fluorescein-labeled CREBtide peptide substrate (Invitrogen PV3508), 1 mM ATP, and 1 nM enzyme (Invitrogen PV3649) for 2 h at 25° C. Reactions were stopped by addition of 10 μL TR-FRET Dilution Buffer (Invitrogen PV3574) with 30 mM EDTA and 1.5 nM LanthaScreen Tb-CREB pSer133 antibody (Invitrogen PV3566). After 30 min. incubation at room temperature, plates were read on a PHERAstar FS plate reader (BMG Labtech).

[3] = tested on: pBAD in KMS.12.BM cells; assay: Pim pBAD signaling assay in KMS.12.BM cells (Example B); format: cell-based; conditions: Homo sapiens, 2.5 h incubation, pBAD ELISA
Protocol: KG-1A cells are purchased from ATCC (Manassas, Va.) and KMS.12.BM cells are purchased from NIBIO, JCRB cell bank (Tokyo, Japan) and maintained in the culture mediums recommended, RPMI, 10% FBS and IMDM 20% FBS (Mediatech, Manassas, Va.) respectively. To measure the pBAD inhibitory activity of the compounds, both cell lines are plated with the culture medium (1×10^6/well/100 μL for KG1A and 4×10^5 cells/well/in 100 μL for KMS12BM) into 96-well V bottom polypropylene plates (Matrix, Thermo Fisher, USA) and incubated 30 min. at 37° C. to normalize cell signaling from handling. Test compounds are added at an appropriate concentration range and further incubated for 2.5 h for KMS.12.BM cells and 4 h for KG1-A cells. Plates are centrifuged at 2000 RPM for 10 min. and supernatants aspirated. 100 μL lysis buffer with protease inhibitors (Cell Signaling Technologies, Danver, Mass., Sigma, St Louis Mo., EMD, USA) is added to the pellets, mixed well and set on ice for 30 min. Lysates are frozen overnight at −80° C. To measure the pBAD activity, a Cell Signaling ELISA kit (Cell Signaling Path Scan phosphor pBAD ELISA) is utilized. 50 μL of the lysate is tested per the ELISA protocol and the data analysis is performed by software on a SpectrMax5 plate reader (Molecular Devices, Sunnyvale, Calif.). IC50 determination is performed by fitting the curve of percent inhibition versus the log of the inhibitor concentration using the GraphPad Prism 5.0 software.

[4] = molecular target: Pim-1 (Homo sapiens (Human), UniProt P11309); assay: Pim-1 kinase assay (Pim enzyme assays, Example A); format: biochemical; conditions: 1 mM ATP, BAD peptide substrate; read-out: PIM1 IC50
Chain of Pim-1 (P11309 whole entry): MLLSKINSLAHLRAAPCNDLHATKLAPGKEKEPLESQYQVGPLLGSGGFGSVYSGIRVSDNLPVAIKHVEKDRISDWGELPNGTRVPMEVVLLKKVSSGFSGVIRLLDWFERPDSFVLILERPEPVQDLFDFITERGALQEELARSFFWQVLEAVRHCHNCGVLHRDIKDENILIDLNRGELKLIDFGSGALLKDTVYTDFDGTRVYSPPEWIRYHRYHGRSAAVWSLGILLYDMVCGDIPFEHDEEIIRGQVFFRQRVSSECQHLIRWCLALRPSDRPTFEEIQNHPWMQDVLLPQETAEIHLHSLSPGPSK
Protocol: as §1

Row | Structure (SMILES) | IC50 [1] | IC50 [2] | IC50 [3] | IC50 [4]
1 | N[C@@H]1CN(c2ccncc2NC(=O)c2ccc3ncc(N4CCC5(CCCO5)CC4)cc3n2)C[C@H](C2CC2)[C@H]1O [Example 42, N-{4-[(3R,4R,5S)-3-Amino-5-cyclopropyl-4-hydroxypiperidin-1-yl]pyridin-3-yl}-7-(1-oxa-8-azaspiro[4.5]dec-8-yl)-1,5-naphthyridine-2-carboxamide] | ≤ 10 nM | 100 to 1000 nM | 50 to 250 nM | ≤ 10 nM
2 | CC(C)c1ccc2ccc(C(=O)Nc3cnccc3N3C[C@@H](N)[C@H](O)[C@@H](C)C3)nc2c1 [Example 10, N-{4-[(3R,4R,5S)-3-Amino-4-hydroxy-5-methylpiperidin-1-yl]pyridin-3-yl}-7-isopropylquinoline-2-carboxamide] | ≤ 10 nM | ≤ 100 nM | ≤ 50 nM | ≤ 10 nM
3 | CCN1CCN(c2ccc3ccc(C(=O)Nc4cnccc4N4C[C@@H](N)[C@H](O)[C@@H](C)C4)nc3c2)CC1=O [Example 22, N-{4-[(3R,4R,5S)-3-Amino-4-hydroxy-5-methylpiperidin-1-yl]pyridin-3-yl}-7-(4-ethyl-3-oxopiperazin-1-yl)quinoline-2-carboxamide] | ≤ 10 nM | ≤ 100 nM | ≤ 50 nM | ≤ 10 nM
4 | CC(C)c1cnc2ccc(C(=O)Nc3cnccc3N3C[C@H](C)C[C@H](N)C3)nc2c1 [Example 2, N-{4-[(3S,5R)-3-Amino-5-methylpiperidin-1-yl]pyridin-3-yl}-7-isopropyl-1,5-naphthyridine-2-carboxamide] | ≤ 10 nM | ≤ 100 nM | ≤ 50 nM | ≤ 10 nM
5 | C[C@@H]1C[C@H](N)CN(c2ccncc2NC(=O)c2ccc3ccc(N4CCC(C#N)CC4)cc3n2)C1 [Example 17, N-{4-[(3S,5R)-3-Amino-5-methylpiperidin-1-yl]pyridin-3-yl}-7-(4-cyanopiperidin-1-yl)quinoline-2-carboxamide] | ≤ 10 nM | 100 to 1000 nM | 50 to 250 nM | ≤ 10 nM
6 | C[C@H]1CN(c2ccncc2NC(=O)c2ccc3ccc(N4CCN(C)CC4)cc3n2)C[C@@H](N)[C@@H]1O [Example 18, N-{4-[(3R,4R,5S)-3-Amino-4-hydroxy-5-methylpiperidin-1-yl]pyridin-3-yl}-7-(4-methylpiperazin-1-yl)quinoline-2-carboxamide] | ≤ 10 nM | 100 to 1000 nM | 50 to 250 nM | ≤ 10 nM
7 | C[C@@H]1C[C@H](N)CN(c2ccncc2NC(=O)c2ccc3ccc(N4CCOCC4)cc3n2)C1 [Example 13, N-{4-[(3S,5R)-3-Amino-5-methylpiperidin-1-yl]pyridin-3-yl}-7-morpholin-4-ylquinoline-2-carboxamide] | ≤ 10 nM | ≤ 100 nM | ≤ 50 nM | ≤ 10 nM
8 | CCn1cc(-c2ccc3ccc(C(=O)Nc4cnccc4N4C[C@@H](N)[C@H](O)[C@@H](C)C4)nc3c2)cn1 [Example 44, N-{4-[(3R,4R,5S)-3-Amino-4-hydroxy-5-methylpiperidin-1-yl]pyridin-3-yl}-7-(1-ethyl-1H-pyrazol-4-yl)quinoline-2-carboxamide] | ≤ 10 nM | ≤ 100 nM | ≤ 50 nM | ≤ 10 nM
9 | C[C@@H]1C[C@H](N)CN(c2ccncc2NC(=O)c2ccc3ccc(N4CCCC4)cc3n2)C1 [Example 31, N-{4-[(3S,5R)-3-Amino-5-methylpiperidin-1-yl]pyridin-3-yl}-7-pyrrolidin-1-ylquinoline-2-carboxamide] | ≤ 10 nM | 100 to 1000 nM | 50 to 250 nM | ≤ 10 nM
10 | C[C@@H]1C[C@H](N)CN(c2ccncc2NC(=O)c2ccc3ccc(N4CCC(c5ccncc5)CC4)cc3n2)C1 [Example 21, N-{4-[(3S,5R)-3-Amino-5-methylpiperidin-1-yl]pyridin-3-yl}-7-(4-pyridin-4-ylpiperidin-1-yl)quinoline-2-carboxamide] | ≤ 10 nM | 100 to 1000 nM | 50 to 250 nM | ≤ 10 nM
11 | C[C@H]1CN(c2ccncc2NC(=O)c2ccc3ccc(N4CCC(c5ccncc5)CC4)cc3n2)C[C@@H](N)[C@@H]1O [Example 20, N-{4-[(3R,4R,5S)-3-Amino-4-hydroxy-5-methylpiperidin-1-yl]pyridin-3-yl}-7-(4-pyridin-4-ylpiperidin-1-yl)quinoline-2-carboxamide] | ≤ 10 nM | ≤ 100 nM | 50 to 250 nM | ≤ 10 nM
12 | CCc1ccc2ccc(C(=O)Nc3cnccc3N3C[C@@H](N)[C@H](O)[C@@H](C)C3)nc2c1 [Example 9, N-{4-[(3R,4R,5S)-3-Amino-4-hydroxy-5-methylpiperidin-1-yl]pyridin-3-yl}-7-ethylquinoline-2-carboxamide] | ≤ 10 nM | 100 to 1000 nM | ≤ 50 nM | ≤ 10 nM
13 | C[C@@H]1C[C@H](N)CN(c2ccncc2NC(=O)c2ccc3ccc(N4CCC5(CCOCC5)CC4)cc3n2)C1 [Example 15, N-{4-[(3S,5R)-3-Amino-5-methylpiperidin-1-yl]pyridin-3-yl}-7-(3-oxa-9-azaspiro[5.5]undec-9-yl)quinoline-2-carboxamide] | ≤ 10 nM | 100 to 1000 nM | 50 to 250 nM | ≤ 10 nM
14 | C[C@H]1CN(c2ccncc2NC(=O)c2ccc3ccc(C4CCOCC4)cc3n2)C[C@@H](N)[C@@H]1O [Example 11, N-{4-[(3R,4R,5S)-3-Amino-4-hydroxy-5-methylpiperidin-1-yl]pyridin-3-yl}-7-(tetrahydro-2H-pyran-4-yl)quinoline-2-carboxamide] | ≤ 10 nM | 100 to 1000 nM | 50 to 250 nM | ≤ 10 nM
15 | C[C@@H]1C[C@H](N)CN(c2ccncc2NC(=O)c2ccc3ccc(-c4cnn(C)c4)cc3n2)C1 [Example 48, N-{4-[(3S,5R)-3-amino-5-methylpiperidin-1-yl]pyridin-3-yl}-7-(1-methyl-1H-pyrazol-4-yl)quinoline-2-carboxamide] | ≤ 10 nM | ≤ 100 nM | ≤ 50 nM | ≤ 10 nM
16 | CCn1cc(-c2cnc3ccc(C(=O)Nc4cnccc4N4C[C@H](C)C[C@H](N)C4)nc3c2)cn1 [Example 5, N-{4-[(3S,5R)-3-Amino-5-methylpiperidin-1-yl]pyridin-3-yl}-7-(1-ethyl-1H-pyrazol-4-yl)-1,5-naphthyridine-2-carboxamide] | ≤ 10 nM | 100 to 1000 nM | ≤ 50 nM | ≤ 10 nM
17 | C[C@@H]1C[C@H](N)CN(c2ccncc2NC(=O)c2ccc3ccc(N4CCC(O)CC4)cc3n2)C1 [Example 50, N-(4-((3S,5R)-3-Amino-5-methylpiperidin-1-yl)pyridin-3-yl)-7-(4-hydroxypiperidin-1-yl)quinoline-2-carboxamide] | ≤ 10 nM | ≤ 100 nM | ≤ 50 nM | ≤ 10 nM
18 | C[C@@H]1C[C@H](N)CN(c2ccncc2NC(=O)c2ccc3ncc(C4CCOCC4)cc3n2)C1 [Example 3, N-{4-[(3S,5R)-3-Amino-5-methylpiperidin-1-yl]pyridin-3-yl}-7-(tetrahydro-2H-pyran-4-yl)-1,5-naphthyridine-2-carboxamide] | ≤ 10 nM | 100 to 1000 nM | ≤ 50 nM | ≤ 10 nM
